Measured values: patent US20240352073A1, “BICYCLIC PEPTIDE INHIBITORS OF INTERLEUKIN-23 RECEPTOR” (Janssen Biotech, Inc., priority 2021, published 2024)
Where two headings read alike, the source gives them in different places. Where a SMILES comes first, the peptide text is derived from it. Bridges are numbered along the chain shown (N, C = ends). [ ]: non-standard residue; d: D form. The star is where a group is joined. Me3N+(CH2)2O(CH2)2O(CH2)2CO = C[N+](C)(C)CCOCCOCCC(=O)*; Trp(7-Me) = Cc1cccc2c(C[C@H](N)C(=O)O)c[nH]c12; 2Nal = N[C@@H](Cc1ccc2ccccc2c1)C(=O)O; AEF = NCCOc1ccc(C[C@H](N)C(=O)O)cc1; 3Pal = N[C@@H](Cc1cccnc1)C(=O)O; Aad = N[C@@H](CCCC(=O)O)C(=O)O; Lys(Me) = CNCCCC[C@H](N)C(=O)O; Pen = CC(C)(S)[C@H](N)C(=O)O; Thp = NC1(C(=O)O)CCOCC1; X1 = C[N+](C)(C)CCCCC*; Sar = CNCC(=O)O

Columns and labels:
[1] = biological target: T1, peripheral blood mononuclear cells (PBMCs) stimulated with IL-23 (Homo sapiens, UniProt Q5VWK5); test: PBMC pSTAT3 assay; type: cell-based; conditions: PBMCs from healthy donors; IL-23 5 ng/mL, 30 minutes; phosphorylated STAT3 in lysates
T1 sequence (Q5VWK5 24-629): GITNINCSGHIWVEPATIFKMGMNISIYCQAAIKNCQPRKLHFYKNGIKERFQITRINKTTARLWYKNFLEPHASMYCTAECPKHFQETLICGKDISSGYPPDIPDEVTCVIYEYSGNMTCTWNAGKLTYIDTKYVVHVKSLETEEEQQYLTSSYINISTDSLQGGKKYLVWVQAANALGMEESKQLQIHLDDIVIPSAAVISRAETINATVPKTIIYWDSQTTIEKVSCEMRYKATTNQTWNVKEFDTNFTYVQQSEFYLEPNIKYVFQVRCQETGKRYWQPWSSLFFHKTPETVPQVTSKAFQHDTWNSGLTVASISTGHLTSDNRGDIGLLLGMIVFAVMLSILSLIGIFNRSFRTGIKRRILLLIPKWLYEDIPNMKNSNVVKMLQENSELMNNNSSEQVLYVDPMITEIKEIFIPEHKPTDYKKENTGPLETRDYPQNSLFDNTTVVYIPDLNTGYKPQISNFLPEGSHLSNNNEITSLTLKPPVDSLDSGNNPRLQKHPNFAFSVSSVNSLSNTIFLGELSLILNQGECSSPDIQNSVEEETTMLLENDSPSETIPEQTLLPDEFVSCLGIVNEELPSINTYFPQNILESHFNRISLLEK
Description: Cryopreserved peripheral blood mononuclear cells (PBMCs) from healthy donors were thawed and washed twice in ImmunoCult-XF T cell expansion medium (XF-TCEM) supplemented with CTL anti-aggregate wash. The cells were counted, resuspended at 2×10^5 cells per mL XF-TCEM supplemented with penicillin/streptomycin and 100 ng/mL […] (BioLegend, 579404), and cultured in tissue culture flasks coated with anti-CD3 (eBioscience, 16-0037-85 or BD Pharmingen, 555329) at 37° C. in 5% C02. On day 4 of culture, PBMCs were collected, washed twice in RPMI-1640 supplemented with 0.1% BSA (RPMI-BSA), and incubated in RPMI-BSA in upright tissue culture flasks for 4 hours at 37° C. in 5% C02. Following this ‘starvation,’ a total of 6×10^4 cells in 30 μL RPMI-BSA was transferred into each well of a 384-well plate pre-spotted with peptide or DMSO. The cells were incubated for 30 minutes prior to the addition of IL-23 at a final concentration of 5 ng/mL. The cells were stimulated with cytokine for 30 minutes at 37° C. in 5% C02, transferred onto ice for 10 minutes, and lysed. Cell lysates were stored at −80° C. until phosphorylated STAT3 was measured using the phospho-STAT panel kit (Meso Scale Discovery, K15202D). The results produced with PBMCs are provide in Table 5 below for several from Examples along with data from the IL23R Reporter Assays utilizing HEK293 cells described above. […]

[2] = biological target: T2, IL-23R (Homo sapiens, UniProt Q5VWK5); test: IL-23R reporter assay (HEK293, STAT-inducible luciferase); type: cell-based; conditions: Table 4; HEK293 cells with IL-23R, IL-12Rβ1 and STAT-inducible luciferase reporter, stimulated with IL-23
T2 construct: host or cells: HEK293
T2 sequence (Q5VWK5 24-629): T1 sequence (Q5VWK5 24-629)
Description: Example 4. IL-23R Reporter Assay
Compounds were serially diluted in 100% (v/v) DMSO) and plated using an Echo acoustic dispenser (Labcyte) into 1536-well non-treated black assay plates (Corning #9146). […] After 5 h at 37° C., 5% CO2, 95% relative humidity, cells were placed at 20° C. and treated with BioGlo reagent (Promega) according to the manufacturer's instructions. Luminescence was measured on a Pherastar FSX (BMG LabTech). […] Where multiple measurements have been made the average is shown with the number of replicates indicated in parenthesis following the IC50 values.

[3] = the molecule shown is the open-chain precursor, 20-membered ring

## CC(=O)N[C@H](CCCCN)C(=O)N[C@@H]1C(=O)N[C@@H](CCC(N)=O)C(=O)N[C@@H]([C@@H](C)O)C(=O)N[C@@H](Cc2c[nH]c3ccccc23)C(=O)N[C@@H](CCC(N)=O)C(=O)N[C@H](C(=O)N[C@@H](Cc2ccc(OCCNC(C)=C3C(=O)CC(C)(C)CC3=O)cc2)C(=O)N[C@@H](Cc2ccc3ccccc3c2)C(=O)NC2(C(=O)N[C@@H](CCC(=O)O)C(=O)N[C@@H](CC(N)=O)C(=O)NCCC(N)=O)CCOCC2)C(C)(C)SSC1(C)C
From Ac-dLys-Pen-Gln-Thr-Trp-Gln-Pen-AEF(Dde)-2Nal-THP-Glu-Asn-bAla-NH2?, disulfide bond, 20-membered ring, I2/AcOH, H2O/MeCN 1:1, 0.5 mM
  ring closure, yield after HPLC: 48%

## 6Ahx(2)-Abu(1)-N-T-W-Q-C(1)-AEF-2Nal-THP-E(2)-N-3Pya-Sar-CONH2
Amide bond, 29-membered ring, PyBOP/DIEA, DMF, 5.0 mM
  ring closure, yield after HPLC: 5%

## 7Ahp(2)-Pen(3)-N-T-7MeW-K(Ac)-Pen(3)-AEF-2Nal-THP-E(2)-N-3Pya-Sar-CONH2
Amide bond, 30-membered ring, PyBOP/DIEA, DMF, 5.0 mM
  ring closure, yield after HPLC: 13%

## CC(=O)N(C)CCCC[C@@H]1NC(=O)[C@H](Cc2c[nH]c3c(C)cccc23)NC(=O)[C@H]([C@@H](C)O)NC(=O)[C@H](CC(=O)N(C)C)NC(=O)[C@H]2NC(=O)[C@H](NC(=O)CCOCCOCC[N+](C)(C)C)CCCCNC(=O)CCC[C@@H](C(=O)N[C@@H](CC(N)=O)C(=O)N[C@@H](Cc3cccnc3)C(=O)N(C)CC(=O)N(C)C)NC(=O)C3(CCOCC3)NC(=O)[C@H](Cc3ccc4ccccc4c3)NC(=O)[C@H](Cc3ccc(OCCCCC[N+](C)(C)C)cc3)NC(=O)[C@@H](NC1=O)C(C)(C)SSC2(C)C [Compd 319] ({Me3N+(CH2)2O(CH2)2O(CH2)2CO}-[dK][Pen]D(NMe2)T[Trp(7-Me)][Lys(Me)](Ac)[Pen]Y(X1)[2Nal][Thp][Aad]N[3Pal][Sar]-NMe2; lactam 1-11; disulfide 2-7)
[1]
  IC50: 0.0079 nM

## CC(=O)NCCCC[C@@H]1NC(=O)[C@H](Cc2c[nH]c3ccccc23)NC(=O)[C@H]([C@@H](C)O)NC(=O)[C@H]2CCC(=O)NCCOc3ccc(cc3)C[C@@H](C(=O)N[C@@H](Cc3ccc4ccccc4c3)C(=O)NC3(C(=O)N[C@@H](CCCCNC(C)=O)C(=O)N[C@@H](CO)C(=O)N[C@@H](Cc4cccnc4)C(=O)N(C)CC(N)=O)CCOCC3)NC(=O)[C@@H](NC1=O)C(C)(C)SSC(C)(C)[C@H](NC(C)=O)C(=O)N2 [Example 4, Ac-[Pen]-E-T-W-[Lys(Ac)]-[Pen]-[Phe(4-(2-aminoethoxy))]-[2Nal]-[THP]-[Lys(Ac)]-S-[3Pal]-[Sarc]-NH2] (Ac-[Pen][dE]TWK(Ac)[Pen][AEF][2Nal][Thp]K(Ac)S[3Pal][Sar]-NH2; disulfide 1-6; lactam 2-7)
[2]
  IC50: 330 nM

## CC(=O)NCCCC[C@@H]1NC(=O)[C@H](Cc2c[nH]c3c(C)cccc23)NC(=O)[C@H]([C@@H](C)O)NC(=O)[C@H](CC(N)=O)NC(=O)[C@H]2NC(=O)CCCCCCNC(=O)CC[C@@H](C(=O)N[C@@H](CC(N)=O)C(=O)N(C)[C@H](Cc3ccc(O)cc3)C(N)=O)NC(=O)C3(CCOCC3)NC(=O)[C@H](Cc3ccc4ccccc4c3)NC(=O)[C@H](Cc3ccc(OCCN)cc3)NC(=O)[C@@H](NC1=O)C(C)(C)SSC2(C)C [Example 25, [7AminoHeptanoicAcid]-[Pen]-N-T-[W(7-Me)]-[Lys(Ac)]-[Pen]-[Phe(4-(2-aminoethoxy))]-[2Nal]-[THP]-E-N-[(D)NMeTyr]-NH2]
[2]
  IC50: 830 nM

## CC(=O)NCCCC[C@@H]1NC(=O)[C@H](Cc2c[nH]c3c(C)cccc23)NC(=O)[C@H]([C@@H](C)O)NC(=O)[C@H](CC(N)=O)NC(=O)[C@@H](NC(=O)CCCCCCN)C(C)(C)SSC(C)(C)[C@@H](C(=O)N[C@H]2Cc3ccc(cc3)OCCNC(=O)CC[C@@H](C(=O)N[C@@H](CC(N)=O)C(=O)N[C@@H](Cc3cccnc3)C(=O)N(C)CC(N)=O)NC(=O)C3(CCOCC3)NC(=O)[C@H](Cc3ccc4ccccc4c3)NC2=O)NC1=O [Example 137, [7AminoHeptanoicAcid]-[Pen]-N-T-[W(7-Me)]-[Lys(Ac)]-[Pen]-[Phe(4-(2-aminoethoxy))]-[2Nal]-[THP]-E-N-[3Pal]-[Sarc]-NH2]
[2]
  IC50: 430 nM

## CC(=O)NCCCC[C@@H]1NC(=O)[C@H](Cc2c[nH]c3c(C)cccc23)NC(=O)[C@H]([C@@H](C)O)NC(=O)[C@H](CC(N)=O)NC(=O)[C@@H](NC(=O)CCCCCCN)C(C)(C)SSC(C)(C)[C@@H](C(=O)N[C@H]2Cc3ccc(cc3)OCCNC(=O)CC[C@@H](C(=O)N[C@@H](CC(N)=O)C(=O)NC3(C(N)=O)CCOCC3)NC(=O)C3(CCOCC3)NC(=O)[C@H](Cc3ccc4ccccc4c3)NC2=O)NC1=O [Example 139, [7AminoHeptanoic Acid]-[Pen]-N-T-[W(7-Me)]-[Lys(Ac)]-[Pen]-[Phe(4-(2-aminoethoxy))]-[2Nal]-[THP]-E-N-[THP]-NH2]
[2]
  IC50: > 16600 nM

## Ac-O2R-Pen-Gln-Thr-Trp-Gln-Pen-Phe[4-(2-aminoethoxy)]-2Nal-THP-O2R-Asn-bAla-NH2
The molecule shown is the open-chain precursor, disulfide bond, 20-membered ring, I2/AcOH, then Boc2O/DIEA, H2O/MeCN, 0.55 mM, 2 steps
  ring closure, yield after HPLC: 40%

## Ac-Pen-Glu-Thr-Trp_7Me-Lys(Ac)-Pen-Phe_4_2ae-2Nal-THP-Lys(Ac)-Asn-His-Sar-NH2
The molecule shown is the open-chain precursor, disulfide bond, 20-membered ring, I2/MeOH, MeCN/H2O 20:80, 1.0 mM, with chain assembly
  ring closure, yield after HPLC: 30%

## H-6Ahx-Abu(4-Cl)-Asn-Thr-Trp-Gln-Cys-AEF-2Nal-THP-Glu-Asn-3Pya-Sar-NH2?
[3]; thioether bond, NaI/EDTA/Na2CO3, DMF, 1.07 mM
  ring closure, isolated yield: 21%

## H-7Ahp-Pen-Asn-Thr-7MeTrp-Lys(Ac)-Pen-AEF-2Nal-THP-Glu-Asn-3Pya-Sar-NH2
[3]; disulfide bond, I2/MeOH, MeCN/H2O 30:70, 1.0 mM
  ring closure, isolated yield: 30.3%

## H-PEG2-Pen-Asn-Thr-7MeTrp-Lys(Ac)-Pen-AEF(Dde)-2Nal-THP-hGlu-Asn-3Pya-Sar-NH2
[3]; disulfide bond, I2/MeOH, H2O/MeCN 1:1, 0.46 mM
  ring closure, isolated yield: 32%

## McCO-Glu-Pen-N-T-7MeW-K(Ac)-Pen-AEF-2Nal-THP—K(Ac)—N-3Pva-Sar-CONH2
Amide bond, 24-membered ring, HATU/DIEA, DMF, 0.24 mM, 2 steps
  ring closure, yield after HPLC: 10%

## McCO-k(2)-Pen(3)-O-T-W-Q-Pen(3)-AEF-2Nal-THP-E(2)-N-bAla-CONH2
Amide bond, 29-membered ring, HATU/DIEA, then N2H4, DMF, […], 2 steps
  ring closure, yield after HPLC: 49%

## PEG2(2)-Pen(3)-N-T-7MeW-K(Ac)-Pen(3)-AEF-2Nal-THP-hE(2)-N-3Pya-Sar-CONH2
Amide bond, 32-membered ring, HATU/DIEA, then N2H4, DMF, 4.8 mM, 2 steps
  ring closure, yield after HPLC: 14%

## ac-Pen(1:3)-Dap(2:3)-T-Trp 7Me-Lvs Ac-Pen(1:3)-Phe 4 2ae(3:3)-Nal-THP-Lys Ac—N—H-Sar-am-PEG4DA(x,2:1,3:2)
Crosslinker bond, 39-membered ring, PEG4DA-NHS/DIEA, DMF, 1.0 mM
  ring closure, yield after HPLC: 50%

## ac-Pen(1:3)-E(2:3)-T-Trp 7Me-Lys Ac-Pen(1:3)-Phe 4 2ae(2:3)-Nal-THP-Lys Ac—N—H-Sar-am
Amide bond, 24-membered ring, PyBOP/DIEA, DMF, 1.0 mM
  ring closure, yield after HPLC: 50%
